For orientation: IC50 means the concentration at which inhibition is half-maximal.

human fatty acid synthase FASN, sequence (P49327 whole entry): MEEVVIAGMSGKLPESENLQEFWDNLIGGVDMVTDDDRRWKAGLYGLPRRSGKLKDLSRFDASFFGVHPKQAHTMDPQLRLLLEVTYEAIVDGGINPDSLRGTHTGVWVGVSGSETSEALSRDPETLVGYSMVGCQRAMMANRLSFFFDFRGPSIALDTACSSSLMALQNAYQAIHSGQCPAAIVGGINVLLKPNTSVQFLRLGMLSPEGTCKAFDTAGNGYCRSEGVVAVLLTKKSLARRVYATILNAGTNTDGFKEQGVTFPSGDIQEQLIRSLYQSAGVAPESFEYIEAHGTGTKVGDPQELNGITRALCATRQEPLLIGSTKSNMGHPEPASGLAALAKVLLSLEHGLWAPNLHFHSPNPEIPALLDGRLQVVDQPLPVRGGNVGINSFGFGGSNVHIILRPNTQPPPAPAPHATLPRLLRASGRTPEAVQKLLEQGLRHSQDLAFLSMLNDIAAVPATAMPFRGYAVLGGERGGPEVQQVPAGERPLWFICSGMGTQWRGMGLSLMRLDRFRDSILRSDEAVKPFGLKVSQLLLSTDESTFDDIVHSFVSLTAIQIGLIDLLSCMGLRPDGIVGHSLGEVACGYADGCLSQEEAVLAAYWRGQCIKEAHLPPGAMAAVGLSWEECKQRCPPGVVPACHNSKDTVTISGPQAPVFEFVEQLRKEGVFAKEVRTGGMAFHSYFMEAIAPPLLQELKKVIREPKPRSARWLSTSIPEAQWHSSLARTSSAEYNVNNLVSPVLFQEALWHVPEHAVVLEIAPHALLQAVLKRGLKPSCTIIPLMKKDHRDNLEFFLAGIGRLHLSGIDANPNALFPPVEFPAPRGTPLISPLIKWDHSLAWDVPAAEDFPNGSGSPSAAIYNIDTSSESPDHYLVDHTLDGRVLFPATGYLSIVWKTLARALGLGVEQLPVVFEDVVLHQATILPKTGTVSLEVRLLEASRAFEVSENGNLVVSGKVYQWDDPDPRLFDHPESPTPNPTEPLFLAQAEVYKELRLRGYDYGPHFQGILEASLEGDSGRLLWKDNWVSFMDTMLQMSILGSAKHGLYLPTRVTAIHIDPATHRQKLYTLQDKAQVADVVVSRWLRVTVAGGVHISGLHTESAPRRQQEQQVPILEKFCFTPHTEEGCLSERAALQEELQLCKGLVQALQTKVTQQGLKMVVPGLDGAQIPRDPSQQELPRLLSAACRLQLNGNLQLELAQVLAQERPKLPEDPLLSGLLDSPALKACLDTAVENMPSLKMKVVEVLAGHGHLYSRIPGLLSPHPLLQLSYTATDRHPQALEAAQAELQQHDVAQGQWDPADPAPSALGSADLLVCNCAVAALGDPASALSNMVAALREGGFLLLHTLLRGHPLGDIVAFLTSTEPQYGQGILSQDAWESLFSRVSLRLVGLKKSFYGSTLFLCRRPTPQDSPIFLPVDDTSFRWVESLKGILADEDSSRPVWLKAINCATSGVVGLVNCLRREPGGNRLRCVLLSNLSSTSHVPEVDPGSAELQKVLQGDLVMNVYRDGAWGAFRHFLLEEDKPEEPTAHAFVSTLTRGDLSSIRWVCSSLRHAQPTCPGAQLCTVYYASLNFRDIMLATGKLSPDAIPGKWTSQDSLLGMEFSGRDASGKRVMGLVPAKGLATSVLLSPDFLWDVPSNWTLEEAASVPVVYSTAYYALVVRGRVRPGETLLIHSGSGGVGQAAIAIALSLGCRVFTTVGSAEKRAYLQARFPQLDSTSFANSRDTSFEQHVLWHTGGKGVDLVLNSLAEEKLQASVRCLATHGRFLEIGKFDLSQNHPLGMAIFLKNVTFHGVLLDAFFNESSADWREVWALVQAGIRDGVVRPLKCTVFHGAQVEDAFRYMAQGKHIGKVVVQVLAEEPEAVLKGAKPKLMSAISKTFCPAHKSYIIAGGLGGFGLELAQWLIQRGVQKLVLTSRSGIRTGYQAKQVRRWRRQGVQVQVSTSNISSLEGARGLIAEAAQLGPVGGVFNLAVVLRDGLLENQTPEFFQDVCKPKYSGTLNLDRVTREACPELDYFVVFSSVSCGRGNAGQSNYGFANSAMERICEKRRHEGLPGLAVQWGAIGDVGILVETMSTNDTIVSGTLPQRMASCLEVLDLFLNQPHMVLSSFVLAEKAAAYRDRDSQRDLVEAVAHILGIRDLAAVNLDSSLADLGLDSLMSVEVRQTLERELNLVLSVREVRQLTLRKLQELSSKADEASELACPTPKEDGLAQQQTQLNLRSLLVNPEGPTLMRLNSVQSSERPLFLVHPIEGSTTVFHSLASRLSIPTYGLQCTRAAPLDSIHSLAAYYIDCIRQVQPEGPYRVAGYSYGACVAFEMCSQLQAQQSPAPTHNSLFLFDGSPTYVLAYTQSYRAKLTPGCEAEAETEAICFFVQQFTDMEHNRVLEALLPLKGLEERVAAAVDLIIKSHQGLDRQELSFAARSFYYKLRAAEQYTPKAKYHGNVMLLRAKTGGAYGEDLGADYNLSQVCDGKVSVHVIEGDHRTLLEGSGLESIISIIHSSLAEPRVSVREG

This experiment concerns the target human fatty acid synthase FASN (Homo sapiens (Human), UniProt P49327). Description: Biochemical activity testing of human fatty acid synthase FASN (NADPH fluorescence intensity enzyme assay). The conditions noted are these: human recombinant full-length fatty acid synthase. In outline: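 In-house Sf9-expressed full-length enzyme (3 μL of 40 nM) in 50 mM potassium phosphate pH 7.0 with glutathione, BSA and Tween-20, plus NADPH (2 μL of 200 μM), preincubated ≥15 min with compound (10 concentrations from 30 μM final, 1% DMSO). Acetyl-CoA/malonyl-CoA added; NADPH fluorescence (ex 340/em 460 nm) read before and after 30 min at room temperature, difference used for IC50.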
`CCC(=O)N[C@H]1CC[C@@H](N(C)C(=O)c2ccc(-c3cc(F)c4[nH]ccc4c3)nc2)C1` [Compound A134, 6-(7-fluoro-1H-indol-5-yl)-N-methyl-N-((1R,3S)-3-propionylamino-cyclopentyl)-nicotinamide]: the IC50 is 300 to 3000 nM.
Next, `CCC(=O)N[C@H]1CC[C@@H](N(C)C(=O)c2ccc(-c3ccc4[nH]ccc4c3F)nc2)C1` [Compound A135, 6-(4-fluoro-1H-indol-5-yl)-N-methyl-N-((1R,3S)-3-propionylamino-cyclopentyl)-nicotinamide]: less than 300 nM; `CCC(=O)N[C@H]1CC[C@@H](N(C)C(=O)c2ccc(-c3cc(F)c4[nH]ccc4c3)nn2)C1` [Compound A136, 6-(7-fluoro-1H-indol-5-yl)-pyridazine-3-carboxylic acid methyl-((1R,3S)-3-propionylamino-cyclopentyl)-amide]: 300 to 3000 nM; `CCC(=O)N[C@H]1CC[C@@H](N(C)C(=O)c2ccc(-c3ccc4[nH]ccc4c3F)nn2)C1` [Compound A137, 6-(4-fluoro-1H-indol-5-yl)-pyridazine-3-carboxylic acid methyl-((1R,3S)-3-propionylamino-cyclopentyl)-amide]: less than 300 nM.
As to `CN(C(=O)c1ccc(-c2nc3ccc(Cl)cc3o2)cc1)[C@@H]1CC[C@H](NC(=O)[C@@H]2CCCO2)C1` [Compound A138, (S)-tetrahydro-furan-2-carboxylic acid ((1S,3R)-3-{[4-(6-chloro-benzooxazol-2-yl)-benzoyl]-methyl-amino}-cyclopentyl)-amide], the 50% inhibitory concentration (IC50) is less than 300 nM.
Take `CCC(=O)N[C@H]1CC[C@@H](N(C)C(=O)c2cnc(-c3ccc4[nH]ccc4c3)nc2)C1` [Compound A139, 2-(1H-indol-5-yl)-pyrimidine-5-carboxylic acid methyl-((1R,3S)-3-propionylamino-cyclopentyl)-amide]: the IC50 is less than 300 nM.
Next, `CCC(=O)N[C@H]1CC[C@@H](N(C)C(=O)c2cnc(-c3ccc4[nH]ccc4c3)c(F)c2)C1` [Compound A140, 5-fluoro-6-(1H-indol-5-yl)-N-methyl-N-((1R,3S)-3-propionylamino-cyclopentyl)-nicotinamide]: less than 300 nM; `CCC(=O)N[C@H]1CC[C@@H](N(C)C(=O)c2cnc(-c3cc(F)c4[nH]ccc4c3)cc2C)C1` [Compound A141, 6-(7-fluoro-1H-indol-5-yl)-4,N-dimethyl-N-((1R,3S)-3-propionylamino-cyclopentyl)-nicotinamide]: 300 to 3000 nM.
Next, `CCC(=O)N[C@H]1CC[C@@H](N(C)C(=O)c2cnc(-c3cc(F)c4[nH]ccc4c3)c(F)c2)C1` [Compound A142, 5-fluoro-6-(7-fluoro-1H-indol-5-yl)-N-methyl-N-((1R,3S)-3-propionylamino-cyclopentyl)-nicotinamide]: 300 to 3000 nM.
Next, `CCC(=O)N[C@H]1CC[C@@H](N(C)C(=O)c2cnc(-c3ccc4[nH]ccc4c3F)c(F)c2)C1` [Compound A143, 5-fluoro-6-(4-fluoro-1H-indol-5-yl)-N-methyl-N-((1R,3S)-3-propionylamino-cyclopentyl)-nicotinamide]: less than 300 nM; `CCC(=O)N[C@H]1CC[C@@H](N(C)C(=O)c2ccc(-c3ccc4nccn4c3)nc2)C1` [Compound A144, 6-imidazo[1,2-a]pyridin-6-yl-N-methyl-N-((1R,3S)-3-propionylamino-cyclopentyl)-nicotinamide]: less than 300 nM; `CCC(=O)N[C@H]1CC[C@@H](N(C)C(=O)c2ccc(-c3cc(F)c4c(c3)CCN4)nc2)C1` [Compound A145, 6-(7-fluoro-2,3-dihydro-1H-indol-5-yl)-N-methyl-N-((1R,3S)-3-propionylamino-cyclopentyl)-nicotinamide]: 300 to 3000 nM.
For the compound `CCC(=O)N[C@H]1CC[C@@H](N(C)C(=O)c2cnc(-c3ccc4[nH]ccc4c3F)cc2C)C1` [Compound A146, 6-(4-fluoro-1H-indol-5-yl)-4,N-dimethyl-N-((1R,3S)-3-propionylamino-cyclopentyl)-nicotinamide], the IC50 was less than 300 nM.
Next, `CCC(=O)N[C@H]1CC[C@@H](N(C)C(=O)c2ccc(-c3ccc4c(c3)C(F)(F)C(=O)N4)nc2)C1` [Compound A147, 6-(3,3-difluoro-2-oxo-2,3-dihydro-1H-indol-5-yl)-N-methyl-N-((1R,3S)-3-propionylamino-cyclopentyl)-nicotinamide]: 3000 to 50000 nM; `CCC(=O)N[C@H]1CC[C@@H](N(C)C(=O)c2cnc(-c3nc4ccc(Cl)cc4o3)cn2)C1` [Compound A148, 5-(6-chloro-benzoxazol-2-yl)-pyrazine-2-carboxylic acid methyl-((1R,3S)-3-propionylamino-cyclopentyl)-amide]: 300 to 3000 nM.
Next, `CN(C(=O)c1ncc(-c2nc3ccc(Cl)cc3o2)cn1)[C@@H]1CC[C@H](NC(=O)[C@@H]2CCCO2)C1` [Compound A149, 5-(6-chloro-benzoxazol-2-yl)-pyrimidine-2-carboxylic acid methyl-{(1R,3S)-3-[((S)-tetrahydro-furan-2-carbonyl)-amino]-cyclopentyl}-amide]: 300 to 3000 nM; `CCC(=O)N[C@H]1CC[C@@H](N(C)C(=O)c2ccc(-c3ccc4[nH]ccc4c3C)nn2)C1` [Compound A150, 6-(4-methyl-1H-indol-5-yl)-pyridazine-3-carboxylic acid methyl-((1R,3S)-3-propionylamino-cyclopentyl)-amide]: less than 300 nM.
Next, `CCC(=O)N[C@H]1CC[C@@H](N(C)C(=O)c2ccc(-c3ccc4[nH]ccc4c3F)c(F)c2)C1` [Compound A151, 3-fluoro-4-(4-fluoro-1H-indol-5-yl)-N-methyl-N-((1R,3S)-3-propionylamino-cyclopentyl)-benzamide]: less than 300 nM.
`CCC(=O)N[C@H]1CC[C@@H](N(C)C(=O)c2ccc(-c3ccc4c(c3)c(CN)cn4C)cc2)C1` [Compound A152, 4-(3-aminomethyl-1-methyl-1H-indol-5-yl)-N-methyl-N-((1R,3S)-3-propionylamino-cyclopentyl)-benzamide]: the IC50 is less than 300 nM.
Next, `CCC(=O)N[C@H]1CC[C@@H](N(C)C(=O)c2ccc(-c3nc4ccc(Cl)cc4o3)nc2)C1` [Compound A153, 6-(6-chloro-benzoxazol-2-yl)-N-methyl-N-((1R,3S)-3-propionylamino-cyclopentyl)-nicotinamide]: less than 300 nM; `CN(C(=O)c1ccc(-c2nc3ccc(Cl)cc3o2)nc1)[C@@H]1CC[C@H](NC(=O)[C@@H]2CCCO2)C1` [Compound A154, 6-(6-chloro-benzoxazol-2-yl)-N-methyl-N-{(1R,3S)-3-[((S)-tetrahydro-furan-2-carbonyl)-amino]-cyclopentyl}-nicotinamide]: less than 300 nM.
Next, `CCC(=O)N[C@H]1CC[C@@H](N(C)C(=O)c2ccc(-c3nc4ccc(Cl)cc4o3)nn2)C1` [Compound A155, 6-(6-chloro-benzoxazol-2-yl)-pyridazine-3-carboxylic acid methyl-((1R,3S)-3-propionylamino-cyclopentyl)-amide]: 3000 to 50000 nM; `CCC(=O)N[C@H]1CC[C@@H](N(C)C(=O)c2ncc(-c3nc4ccc(Cl)cc4o3)cn2)C1` [Compound A156, 5-(6-chloro-benzoxazol-2-yl)-pyrimidine-2-carboxylic acid methyl-((1R,3S)-3-propionylamino-cyclopentyl)-amide]: 3000 to 50000 nM; `CCC(=O)N[C@H]1CC[C@@H](N(C)C(=O)c2ccc(-c3ccc4cc[nH]c4c3F)nc2)C1` [Compound A157, 6-(7-fluoro-1H-indol-6-yl)-N-methyl-N-((1R,3S)-3-propionylamino-cyclopentyl)-nicotinamide]: less than 300 nM.
Next, `CN(C(=O)c1ccc(-c2nc3ccc(Cl)cc3o2)nn1)[C@@H]1CC[C@H](NC(=O)[C@@H]2CCCO2)C1` [Compound A158, 6-(6-chloro-1,3-benzoxazol-2-yl)-N-methyl-N-[(1R,3S)-3-[[(2S)-tetrahydrofuran-2-carbonyl]amino]cyclopentyl]pyridazine-3-carboxamide]: 300 to 3000 nM; `CN(C(=O)c1cnc(-c2nc3ccc(Cl)cc3o2)cn1)[C@@H]1CC[C@H](NC(=O)[C@@H]2CCCO2)C1` [Compound A159, 5-(6-chloro-benzoxazol-2-yl)-pyrazine-2-carboxylic acid methyl-{(1R,3S)-3-[((S)-tetrahydro-furan-2-carbonyl)-amino]-cyclopentyl}-amide]: less than 300 nM.
Regarding `CCC(=O)N[C@H]1CC[C@@H](N(C)C(=O)c2ccc(-c3ccc4[nH]cc(C(N)=O)c4c3)c(F)c2)C1` [Compound A160, 5-{2-fluoro-4-[methyl-((1R,3S)-3-propionylamino-cyclopentyl)-carbamoyl]-phenyl}-1H-indole-3-carboxylic acid amide], the IC50 was less than 300 nM.
Next, `CCC(=O)N[C@@H]1CC[C@@H](N(C)C(=O)c2ccc(-c3nc4ccccc4o3)cc2)C1` [Compound A165, 4-benzoxazol-2-yl-N-methyl-N-((1R,3R)-3-propionylamino-cyclopentyl)-benzamide]: 3000 to 50000 nM; `CC(=O)N[C@@H]1CC[C@@H](N(C)C(=O)c2ccc(-c3nc4ccccc4o3)cc2)C1` [Compound A166, N-((1R,3R)-3-acetylamino-cyclopentyl)-4-benzooxazol-2-yl-N-methyl-benzamide]: 3000 to 50000 nM.
As for `CN(C(=O)c1ccc(-c2nc3ccccc3o2)cc1)[C@@H]1CC[C@@H](NC(=O)Cc2ccccc2)C1` [Compound A167, 4-benzoxazol-2-yl-N-methyl-N-((1R,3R)-3-phenylacetylamino-cyclopentyl)-benzamide], the IC50 lay in the range of 3000 to 50000 nM.
Next, `CC[C@@H](C)CC(=O)N[C@@H]1CC[C@@H](N(C)C(=O)c2ccc(-c3nc4ccccc4o3)cc2)C1` [Compound A168, 4-benzoxazol-2-yl-N-methyl-N-[(1R,3R)-3-((R)-3-methyl-pentanoylamino)-cyclopentyl]-benzamide]: 3000 to 50000 nM.

For the origin of these results see US9670142B2, “1,3-diaminocyclopentane carboxamide derivatives” (Merck Patent GmbH, priority 2013, dated 2017).
